Ki data for four molecules are collected here from patent US9868738B2, “Diazine-fused amidines as BACE inhibitors, compositions, and their use” (Merck Sharp & Dohme Corp., priority 2014, dated 2018).

The target in test [1] is soluble human BACE1 catalytic domain (Homo sapiens (Human), UniProt P56817). Kind of test: BACE-1 Ki Assay (BACE-1 HTRF FRET Assay). In kind it is biochemical. The settings on record: Ki calculated from IC50 using the Cheng-Prusoff equation; QSY7-APPswe-Eu substrate 200 nM, pH 5.0. As for the experimental part: In another embodiment, the compounds of the invention comprise the example compounds shown in the table below, or a tautomer thereof, or a pharmaceutically acceptable salt of said compound or said tautomer. Examples 2 to 42 were prepared using the method similar to Ex. 1. Example 44 to 51 were synthesized using the method similar to Ex. 43. BACE-1 values reported in this table were measured using BACE-1 Ki Assay (BACE-1 HTRF FRET Assay).
• Reagents: Na^+-Acetate pH 5.0; 1% Brij-35; Glycerol; Dimethyl Sulfoxide (DMSO); Recombinant human soluble BACE1 catalytic domain (>95% pure); APP Swedish mutant peptide substrate (QSY7-APP^swe-Eu): QSY7-EISEVNLDAEFC-Europium-amide.
A homogeneous time-resolved FRET assay can be used to determine IC50 values for inhibitors of the soluble human BACE1 catalytic domain. This assay monitors the increase of 620 nm fluorescence that resulted from BACE1 cleavage of an APPswedish APP^swe mutant peptide FRET substrate (QSY7-EISEVNLDAEFC-Europium-amide). This substrate contains an N-terminal QSY7 moiety that serves as a quencher of the C-terminal Europium fluorophore (620 nm Em). In the absence of enzyme activity, 620 nm fluorescence is low in the assay and increased linearly over 3 hours in the presence of uninhibited BACE1 enzyme. Inhibition of BACE1 cleavage of the QSY7-APP^swe-Eu substrate by inhibitors is manifested as a suppression of 620 nm fluorescence.
Varying concentrations of inhibitors at 3× the final desired concentration in a volume of 10 ul are preincubated with purified human BACE1 catalytic domain (3 nM in 10 μl) for 30 minutes at 30° C. in reaction buffer containing 20 mM Na-Acetate pH 5.0, 10% glycerol, 0.1% Brij-35 and 7.5% DSMO. Reactions are initiated by addition of 10 μl of 600 nM QSY7-APP^swe-Eu substrate (200 nM final) to give a final reaction volume of 30 μl in a 384 well Nunc HTRF plate. The reactions are incubated at 30° C. for 1.5 hours. The 620 nm fluorescence is then read on a Rubystar HTRF plate reader (BMG Labtechnologies) using a 50 millisecond delay followed by a 400 millisecond acquisition time window. Inhibitor IC50 values are derived from non-linear regression analysis of concentration response curves. Ki values are then calculated from IC50 values using the Cheng-Prusoff equation using a previously determined […] of 8 μM for the QSY7-APP^swe-Eu substrate at BACE1.

The target of test [2] is purified human autoBACE-2 (Homo sapiens (Human), UniProt Q9Y5Z0). Kind of test: BACE-2 Assay (BACE-HTRF assay). The test is classed as biochemical. As to conditions: Ki calculated from IC50 using the Cheng-Prusoff equation; QSY7-EISEVNLDAEFC-Eu-amide substrate 200 nM, pH 5.0. As for the experimental part: Inhibitor IC50s at purified human autoBACE-2 are determined in a time-resolved endpoint proteolysis assay that measures hydrolysis of the QSY7-EISEVNLDAEFC-Eu-amide FRET peptide substrate (BACE-HTRF assay). BACE-mediated hydrolysis of this peptide results in an increase in relative fluorescence (RFU) at 620 nm after excitation with 320 nm light. Inhibitor compounds, prepared at 3× the desired final concentration in 1×BACE assay buffer (20 mM sodium acetate pH 5.0, 10% glycerol, 0.1% Brij-35) supplemented with 7.5% DMSO are pre-incubated with an equal volume of autoBACE-2 enzyme diluted in 1×BACE assay buffer (final enzyme concentration 1 nM) in black 384-well NUNC plates for 30 minutes at 30° C. […] DMSO is present at […] final concentration in the assay. Following laser excitation of sample wells at 320 nm, the fluorescence signal at 620 nm is collected for 400 ms following a 50 μs delay on a RUBYstar HTRF plate reader (BMG Labtechnologies). Raw RFU data is normalized to maximum (1.0 nM BACE/DMSO) and minimum (no enzyme/DMSO) RFU values. IC50s are determined by nonlinear regression analysis (sigmoidal dose response, variable slope) of percent inhibition data with minimum and maximum values set to 0 and 100 percent respectively. Similar IC50s are obtained when using raw RFU data. The Ki values are calculated from the IC50 using the Cheng-Prusoff equation.
Sequence of purified human autoBACE-2 (Q9Y5Z0 63-473 limits assumed): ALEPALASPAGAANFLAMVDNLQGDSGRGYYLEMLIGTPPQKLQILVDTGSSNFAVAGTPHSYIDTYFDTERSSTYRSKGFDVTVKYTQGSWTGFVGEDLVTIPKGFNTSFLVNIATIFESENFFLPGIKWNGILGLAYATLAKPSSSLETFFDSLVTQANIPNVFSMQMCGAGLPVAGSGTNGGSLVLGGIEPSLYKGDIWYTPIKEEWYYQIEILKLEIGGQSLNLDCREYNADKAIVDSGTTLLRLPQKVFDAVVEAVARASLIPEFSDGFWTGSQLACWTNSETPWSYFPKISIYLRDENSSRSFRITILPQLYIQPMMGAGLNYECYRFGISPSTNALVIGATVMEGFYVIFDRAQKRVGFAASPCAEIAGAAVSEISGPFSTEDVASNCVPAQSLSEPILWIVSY

Sequence of soluble human BACE1 catalytic domain (P56817 75-416): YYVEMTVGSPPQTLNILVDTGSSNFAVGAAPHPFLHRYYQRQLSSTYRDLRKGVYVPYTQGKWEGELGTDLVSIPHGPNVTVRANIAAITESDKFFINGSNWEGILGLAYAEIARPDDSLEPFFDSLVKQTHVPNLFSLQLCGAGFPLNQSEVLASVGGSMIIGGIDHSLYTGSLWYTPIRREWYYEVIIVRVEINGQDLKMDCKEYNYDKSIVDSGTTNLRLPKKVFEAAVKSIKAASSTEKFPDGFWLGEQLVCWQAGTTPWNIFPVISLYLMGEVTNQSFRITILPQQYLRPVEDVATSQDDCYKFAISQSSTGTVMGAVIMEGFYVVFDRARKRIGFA

Usually Ki stands for the equilibrium dissociation constant of an inhibitor or competing ligand from its target. With `C[C@@]1(c2cc(NC(=O)c3ccc(F)cn3)ccc2F)Cc2nc(C3CC3)ncc2C(=N)N1` [Example 48, N-{3-[(7S)-2-cyclopropyl-5-imino-7-methyl-5,6,7,8-tetrahydropyrido[4,3-d]pyrimidin-7-yl]-4-fluorophenyl}-5-fluoropyridine-2-carboxamide], the figures for the inhibition constant Ki in test [1] and in test [2] were 13.1 nM and 3 nM, respectively.

For the molecule `C[C@@]1(c2cc(NC(=O)c3ccc(C(F)(F)F)cn3)ccc2F)Cc2nc(C3CC3)ncc2C(=N)N1` [Example 49, N-{3-[(7S)-2-cyclopropyl-5-imino-7-methyl-5,6,7,8-tetrahydropyrido[4,3-d]pyrimidin-7-yl]-4-fluorophenyl}-5-(trifluoromethyl)pyridine-2-carboxamide], the values for the Ki in test [1] and in test [2] were 20.5 nM and 34.2 nM, respectively.

Turning to `Cc1ncc2c(n1)C[C@](c1cc(NC(=O)c3ccc(C#N)cn3)ccc1F)(C(F)F)NC2=N` [Example 50, 5-cyano-N-{3-[(7S)-7-(difluoromethyl)-5-imino-2-methyl-5,6,7,8-tetrahydropyrido[4,3-d]pyrimidin-7-yl]-4-fluorophenyl}pyridine-2-carboxamide], the Ki in test [1] was 7.1 nM; in test [2] it was 10.9 nM.

As to `C[C@@]1(c2cc(NC(=O)c3ccc(C#N)cn3)ccc2F)Cc2nccnc2C(=N)N1` [Example 51, 5-cyano-N-{4-fluoro-3-[(7S)-5-imino-7-methyl-5,6,7,8-tetrahydropyrido[3,4-b]pyrazin-7-yl]phenyl}pyridine-2-carboxamide], the inhibition constant (Ki) was 62.7 nM in test [1] and 207 nM in test [2].
